Measured values from patent US20250136594A1 (Tango Therapeutics, Inc., priority 2022, published 2025).

Legend:
[1] = system: SDMA in HAP1 MTAP-deleted (MTAP-null) cell line (PRMT5 inhibition); test: SDMA in-cell western assay, HAP1 MTAP-deleted cell line; conditions: for IC50 / IC90: Homo sapiens; for IC50: HAP1, read-out: Hap1 MTAP deleted IC50; for IC90: HAP1, read-out: Hap1 MTAP deleted IC90; for Hap1 MTAP intact/deleted ratio: ratio of SDMA IC50 in HAP1 MTAP-intact to HAP1 MTAP-deleted cell line
[2] = system: SDMA in HAP1 MTAP-intact cell line (PRMT5 inhibition); test: SDMA in-cell western assay, HAP1 MTAP-intact cell line; conditions: Homo sapiens, HAP1, read-out: Hap1 MTAP intact IC50
[3] = system: HAP1 MTAP-deleted cell line; test: Viability assay, HAP1 MTAP-deleted cell line; type: cell-based; conditions: Homo sapiens; viability assay, HAP1 MTAP-deleted cell line; read-out: Hap1 MTAP deleted viability IC50

| Compound | IC50 [1] | IC90 [1] | IC50 [2] | Hap1 MTAP intact/deleted ratio [1] | IC50 [3] |
| --- | --- | --- | --- | --- | --- |
| COC[C@@H](C1CC1)N(Cc1ccc(C(F)(F)F)cn1)C(=O)C(=O)Nc1cnc(OC)c(C(N)=O)c1 [Compound 37, (R)-N1-(5-carbamoyl-6-methoxypyridin-3-yl)-N^2-(1-cyclopropyl-2-methoxyethyl)-N^2-((5-(trifluoromethyl)pyridin-2-yl)methyl)oxalamide] | 0.005 to 0.05 µM | < 0.075 µM | > 0.05 µM | B (IC50 ratio greater than or equal to 15 fold but lower than 30 fold) | < 0.1 µM |
| CC(C)CN(Cc1ccccc1F)C(=O)C(=O)Nc1cnc(N)c2cn[nH]c12 [Compound 94, N-(4-amino-1H-pyrazolo[4,3-c]pyridin-7-yl)-N′-[(2-fluorophenyl)methyl]-N′-isobutyl-oxamide] | < 0.005 µM | < 0.075 µM | 0.005 to 0.05 µM | B (IC50 ratio greater than or equal to 15 fold but lower than 30 fold) | < 0.1 µM |
| Cc1cc(NC(=O)C(=O)N(Cc2ccc(C(F)(F)F)cn2)[C@@H]2CC[C@@H](C)c3ccccc32)cnc1N (stereo in doubt) [Compound 51, N-(6-amino-5-methyl-3-pyridyl)-N′-(4-methyltetralin-1-yl)-N′-[[5-(trifluoromethyl)-2-pyridyl]methyl]oxamide] | < 0.005 µM | < 0.075 µM | 0.005 to 0.05 µM | C (IC50 ratio of less than 15 fold) | < 0.1 µM |
| COC[C@@H](C1CC1)N(Cc1ccc(C(F)(F)F)cn1)C(=O)C(=O)Nc1cnc(N)c(C2CC2)c1 [Compound 45, (R)—N^1-(6-amino-5-cyclopropylpyridin-3-yl)-N^2-(1-cyclopropyl-2-methoxyethyl)-N^2-((5-(trifluoromethyl)pyridin-2-yl)methyl)oxalamide] | 0.005 to 0.05 µM | > 0.125 µM | > 0.05 µM | A (IC50 ratio greater than or equal to 30 fold) | 0.1 to 1 µM |
| Nc1ncc(NC(=O)C(=O)N(Cc2ccc(C(F)(F)F)cn2)[C@@H]2CCC[C@H]2OC(F)F)cc1C1CC1 [Compound 4, N1-(6-amino-5-cyclopropylpyridin-3-yl)-N^2-((1R,2R)-2-(difluoromethoxy)cyclopentyl)-N^2-((5-(trifluoromethyl)pyridin-2-yl)methyl)oxalamide] | 0.005 to 0.05 µM | 0.075 to 0.125 µM | > 0.05 µM | A (IC50 ratio greater than or equal to 30 fold) | 0.1 to 1 µM |
| CC1CCC(N(Cc2ccc(C(F)(F)F)cn2)C(=O)C(=O)Nc2ccn3ccnc3c2)c2ccccc21 (centres unmarked) [Compound 12, N-imidazo[1,2-a]pyridin-7-yl-N′-(4-methyltetralin-1-yl)-N′-[[5-(trifluoromethyl)-2-pyridyl]methyl]oxamide] | 0.005 to 0.05 µM | > 0.125 µM | > 0.05 µM | C (IC50 ratio of less than 15 fold) | 0.1 to 1 µM |
| CC(C)N(Cc1ccccc1C(F)(F)F)C(=O)C(=O)Nc1cnc(N)c2cn[nH]c12 [Compound 73, N-(4-amino-1H-pyrazolo[4,3-c]pyridin-7-yl)-N′-isopropyl-N′-[[2-(trifluoromethyl)phenyl]methyl]oxamide] | < 0.005 µM | < 0.075 µM | 0.005 to 0.05 µM | B (IC50 ratio greater than or equal to 15 fold but lower than 30 fold) | < 0.1 µM |
| Nc1ncc(NC(=O)C(=O)N(Cc2ccccc2)C2CCOc3ccccc32)c2[nH]ncc12 (centres unmarked) [Compound 97, N-(4-Amino-1H-pyrazolo[4,3-c]pyridin-7-yl)-N′-benzyl-N′-chroman-4-yl-oxamide] | < 0.005 µM | < 0.075 µM | 0.005 to 0.05 µM | B (IC50 ratio greater than or equal to 15 fold but lower than 30 fold) | < 0.1 µM |
| CC[C@@H](C)CN(Cc1ccccc1C)C(=O)C(=O)Nc1cnc(N)c2cn[nH]c12 [Compound 62, (R)—N^1-(4-amino-1H-pyrazolo[4,3-c]pyridin-7-yl)-N^2-(2-methylbenzyl)-N^2-(2-methylbutyl)oxalamide] | < 0.005 µM | < 0.075 µM | 0.005 to 0.05 µM | A (IC50 ratio greater than or equal to 30 fold) | < 0.1 µM |
| Nc1ncc(NC(=O)C(=O)N(Cc2ccc(C(F)(F)F)cn2)[C@@H]2CCC[C@H]2OC(F)F)c2[nH]ncc12 [Compound 43, N1-(4-amino-1H-pyrazolo[4,3-c]pyridin-7-yl)-N^2-((1R,2R)-2-(difluoromethoxy)cyclopentyl)-N^2-((5-(trifluoromethyl)pyridin-2-yl)methyl)oxalamide] | < 0.005 µM | < 0.075 µM | 0.005 to 0.05 µM | C (IC50 ratio of less than 15 fold) | < 0.1 µM |

The next lines start with results.

| IC50 [1] | IC90 [1] | IC50 [2] | Compound | Hap1 MTAP intact/deleted ratio [1] | IC50 [3] |
| --- | --- | --- | --- | --- | --- |
| < 0.005 µM | < 0.075 µM | > 0.05 µM | CC(C)CN(C(=O)C(=O)Nc1cnc(N)c2cn[nH]c12)C(C)c1ccccc1 (centres unmarked) [Compound 172, N-(4-amino-1H-pyrazolo[4,3-c]pyridin-7-yl)-N′-isobutyl-N′-(1-phenylethyl)oxamide] | B (IC50 ratio greater than or equal to 15 fold but lower than 30 fold) | < 0.1 µM |
| < 0.005 µM | 0.075 to 0.125 µM | > 0.05 µM | CCN(Cc1nccc2ccccc12)C(=O)C(=O)Nc1cnc(N)c2cn[nH]c12 [Compound 146, N-(4-amino-2H-pyrazolo[4,3-c]pyridin-7-yl)-N′-ethyl-N′-(1-isoquinolylmethyl)oxamide] | A (IC50 ratio greater than or equal to 30 fold) | 0.1 to 1 µM |
| < 0.005 µM | < 0.075 µM | 0.005 to 0.05 µM | CC(C)CN(Cc1ccc(S(F)(F)(F)(F)F)cc1)C(=O)C(=O)Nc1cnc(N)c2cn[nH]c12 [Compound 110] | C (IC50 ratio of less than 15 fold) | < 0.1 µM |
| < 0.005 µM | < 0.075 µM | 0.005 to 0.05 µM | CCN(Cc1ccc(S(F)(F)(F)(F)F)cc1C)C(=O)C(=O)Nc1cnc(N)c2cn[nH]c12 [Compound 194, N-(4-Amino-1H-pyrazolo[4,3-c]pyridin-7-yl)-N′-ethyl-N′-[[2-methyl-4-(pentafluoro-sulfanyl)phenyl]methyl]oxamide] | B (IC50 ratio greater than or equal to 15 fold but lower than 30 fold) | < 0.1 µM |
| 0.005 to 0.05 µM | < 0.075 µM | 0.005 to 0.05 µM | Nc1ncc(NC(=O)C(=O)N(Cc2ccc(C(F)(F)F)cn2)Cc2ccccc2Cl)c2[nH]ncc12 [Compound 182, N-(4-amino-1H-pyrazolo[4,3-c]pyridin-7-yl)-N′-[(2-chlorophenyl)methyl]-N′-[[5-(trifluoromethyl)-2-pyridyl]methyl]oxamide] | C (IC50 ratio of less than 15 fold) | < 0.1 µM |
| < 0.005 µM | < 0.075 µM | 0.005 to 0.05 µM | CC(c1ccccc1)N(Cc1ccccn1)C(=O)C(=O)Nc1cnc(N)c2cn[nH]c12 (centres unmarked) [Compound 174, N-(4-amino-1H-pyrazolo[4,3-c]pyridin-7-yl)-N′-(1-phenylethyl)-N′-(2-pyridylmethyl)oxamide] | B (IC50 ratio greater than or equal to 15 fold but lower than 30 fold) | < 0.1 µM |
| 0.005 to 0.05 µM | 0.075 to 0.125 µM | 0.005 to 0.05 µM | Nc1ncc(NC(=O)C(=O)N(Cc2ccc(C(F)(F)F)cn2)Cc2ccccc2C(F)(F)F)c2[nH]ncc12 [Compound 163, N-(4-amino-1H-pyrazolo[4,3-c]pyridin-7-yl)-N′-[[2-(trifluoromethyl)phenyl]methyl]-N′-[[5-(trifluoromethyl)-2-pyridyl]methyl]oxamide] | C (IC50 ratio of less than 15 fold) | < 0.1 µM |
| < 0.005 µM | 0.075 to 0.125 µM | > 0.05 µM | Cc1ccccc1CN(C(=O)C(=O)Nc1cnc(N)c2cn[nH]c12)[C@@H](C)C(C)C [Compound 117, (S)—N^1-(4-amino-1H-pyrazolo[4,3-c]pyridin-7-yl)-N^2-(2-methylbenzyl)-N^2-(3-methylbutan-2-yl)oxalamide] | B (IC50 ratio greater than or equal to 15 fold but lower than 30 fold) | 0.1 to 1 µM |
| < 0.005 µM | < 0.075 µM | 0.005 to 0.05 µM | Cc1cccnc1CN(C(=O)C(=O)Nc1cnc(N)c2cn[nH]c12)C(C)C(C)C (single isomer, unassigned) [Compound 106] | C (IC50 ratio of less than 15 fold) | < 0.1 µM |
| 0.005 to 0.05 µM | > 0.125 µM | > 0.05 µM | Nc1ncc(NC(=O)C(=O)N(CCC(F)(F)F)Cc2ccccc2)c2[nH]ncc12 [Compound 102, N-(4-amino-1H-pyrazolo[4,3-c]pyridin-7-yl)-N′-benzyl-N′-(3,3,3-trifluoropropyl)oxamide] | A (IC50 ratio greater than or equal to 30 fold) | 0.1 to 1 µM |
| < 0.005 µM | < 0.075 µM | 0.005 to 0.05 µM | Nc1ncc(NC(=O)C(=O)N(Cc2ccccc2)Cc2ncccc2C(F)(F)F)c2[nH]ncc12 [Compound 154, N-(4-amino-1H-pyrazolo[4,3-c]pyridin-7-yl)-N′-benzyl-N′-[[3-(trifluoromethyl)-2-pyridyl]methyl]oxamide] | A (IC50 ratio greater than or equal to 30 fold) | < 0.1 µM |
| < 0.005 µM | < 0.075 µM | > 0.05 µM | CCN(Cc1ccc(C(F)(F)F)cc1C)C(=O)C(=O)Nc1cnc(N)c2cn[nH]c12 [Compound 104, N-(4-Amino-1H-pyrazolo[4,3-c]pyridin-7-yl)-N′-ethyl-N′-[[2-methyl-4-(trifluoromethyl)phenyl]methyl]oxamide] | A (IC50 ratio greater than or equal to 30 fold) | < 0.1 µM |
